Counter-ions that a name gives are not always drawn.

This assay concerns the target T1, CCR-3 (Homo sapiens, UniProt P51677).
T1 sequence (P51677 1-355): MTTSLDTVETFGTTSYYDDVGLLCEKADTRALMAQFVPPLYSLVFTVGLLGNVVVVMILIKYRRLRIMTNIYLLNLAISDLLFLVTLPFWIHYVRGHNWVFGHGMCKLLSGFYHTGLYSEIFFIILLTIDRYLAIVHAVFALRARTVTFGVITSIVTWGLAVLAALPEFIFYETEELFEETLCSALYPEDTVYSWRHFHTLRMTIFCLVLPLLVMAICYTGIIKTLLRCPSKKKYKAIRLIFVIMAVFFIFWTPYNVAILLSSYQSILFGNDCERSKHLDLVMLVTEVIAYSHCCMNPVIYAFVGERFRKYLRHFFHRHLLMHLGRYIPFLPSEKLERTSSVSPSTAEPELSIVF
Kind of assay: Eotaxin-induced chemotaxis of CCR-3 transfectant cells (CCR3/U937). It is filed as cell-based. Also on record: expressed in transfected cells; host or cells: U937. The conditions noted are these: eotaxin 1 x 10^-9 M; for inhibition at 10 µM: U-937; for inhibition at 10 µM / Chemotaxis Assay 10 µM (inhibition %): 10 µM test compound; for Chemotaxis Assay 0.1 µg/ml (inhibition %): test compound 0.1 µg/ml, CCR3/U937 transfectants, 37 °C, 1 hour.

As to `CC[N+](CCCNC(=O)Nc1ccc(Br)cc1)(CCCC(=O)O)[C@@H](C)c1ccccc1` (stereo partly drawn) [Compound 315, [3-(4-Bromophenylureido)propyl][(1S)-1-phenylethyl][3-(carboxy)propyl]ethylammonium trifluoroacetate], at 10 µM the inhibition (CCR3/U937 cells (Table 3c)) was 63%.

For `CCC(CC)C[N+](CC)(CCCNC(=O)Nc1ccccc1)CCc1ccc(Cl)cc1Cl.[I-]` (stereo not drawn) [compound 429], the “Chemotaxis Assay 0.1 µg/ml (inhibition %)” value is on record as 64%.

For `C=C(C)C[N+](CC)(CCCNC(=O)Nc1ccccc1)CCc1cccc(Cl)c1.[I-]` (stereo not drawn) [compound 423], the “Chemotaxis Assay 0.1 µg/ml (inhibition %)” value stood at 92%.

Turning to `CCN(CCCNC(=O)Nc1ccccc1Br)C1CCCc2ccccc21` (stereo not drawn) [Compound 191], the “Chemotaxis Assay 10 µM (inhibition %)” value (CCR3/U937 cells (Table 3a)) came to 100%.

`O=C(NCCCN(CCCO)C1CCCc2ccccc21)Nc1ccc(Br)cc1` (stereo not drawn) [Compound 216]: the “Chemotaxis Assay 10 µM (inhibition %)” value (CCR3/U937 cells (Table 3a)) came out at 100%.

On to `CC(c1ccc2ccccc2c1)N(CCCNC(=O)Nc1ccc(Br)cc1)CCCC(=O)O` (stereo not drawn) [Compound 270], for which, under “CCR3/U937 cells (Table 3a)”, the “Chemotaxis Assay 10 µM (inhibition %)” value is 100%.

Take `CC[N+](CCCNC(=O)Nc1ccc(OC)cc1)(CCc1ccc(Cl)cc1)Cc1ccccc1.[I-]` (stereo not drawn) [compound 324]: the “Chemotaxis Assay 10 µM (inhibition %)” value (CCR3/U937 cells (Table 3c)) is reported as 100%.

Consider `C=C(C)C[N+](CC)(CCCNC(=O)Nc1ccccc1)CCc1ccc(Cl)c(Cl)c1.[I-]` (stereo not drawn) [compound 425], for which the “Chemotaxis Assay 0.1 µg/ml (inhibition %)” value was 93%.

With `CC[N+](CCCNC(=O)Nc1ccccc1)(CCc1ccc(Cl)cc1)Cc1cccc(C)c1.[I-]` (stereo not drawn) [compound 347], the “Chemotaxis Assay 10 µM (inhibition %)” value (CCR3/U937 cells (Table 3c)) is reported as 100%.

With `CCC(CC)C[N+](CC)(CCCNC(=O)Nc1ccc(Br)cc1)CCc1cccc(Cl)c1.[I-]` (stereo not drawn) [compound 379], the “Chemotaxis Assay 0.1 µg/ml (inhibition %)” value was found to be 80%.

In turn, `Cc1ccc(CN(CCCNC(=O)Nc2ccccc2)CCc2ccc(Cl)cc2)cc1` [Compound 21] showed an inhibition at 10 µM (CCR3/U937 cells (Table 3a)) of 40%.

In turn, `CC(C)(C)c1ccc(CN(CCCNC(=O)Nc2ccccc2)CCc2ccc(Cl)cc2)cc1` [Compound 19] gave an inhibition at 10 µM (CCR3/U937 cells (Table 3a)) of 47%.

As for `CC[N+](CC)(CCCNC(=O)Nc1ccccc1)CCc1ccc(C)cc1.[I-]` [Compound 307], the “Chemotaxis Assay 10 µM (inhibition %)” value (CCR3/U937 cells (Table 3c)) is 92%.

For the molecule `COC(=O)CN(CCCNC(=O)Nc1ccccc1)CCc1ccc(Cl)cc1` [Compound 245], for the setting “CCR3/U937 cells (Table 3a)”, the “Chemotaxis Assay 10 µM (inhibition %)” value came out at 100%.

`Cc1ccc(C(C)N(CCCNC(=O)Nc2ccc(Br)cc2)CCCC(=O)O)cc1` (stereo not drawn) [Compound 226]: the “Chemotaxis Assay 10 µM (inhibition %)” value (CCR3/U937 cells (Table 3a)) stood at 100%.

On to `CCOC(=O)CCCCC[N+](CC)(CCCNC(=O)Nc1ccccc1)CCc1ccc(Cl)cc1.[I-]` (stereo not drawn) [compound 321], for which the “Chemotaxis Assay 10 µM (inhibition %)” value (CCR3/U937 cells (Table 3c)) was 100%.

Under “CCR3/U937 cells (Table 3a)”, `O=C(NCCCN(CCc1ccc(Cl)cc1)CCc1ccc(Cl)cc1)Nc1ccccc1` [Compound 238, [3-(Phenylureido)propyl]bis[2-(4-chlorophenyl)ethyl]amine] gave an inhibition at 10 µM of 69%.

In turn, `CC[N+](CCCNC(=O)Nc1ccc(Br)cc1)(CCCC(=O)O)[C@H](C)c1ccccc1` (stereo partly drawn) [Compound 316, [3-(4-Bromophenylureido)propyl][(1R)-1-phenylethyl][3-(carboxy)propyl]ethylammonium trifluoroacetate] had an inhibition at 10 µM (CCR3/U937 cells (Table 3c)) of 82%.

On to `CC[N+](CCCNC(=O)Nc1ccccc1)(CCOCCOC)CCc1cccc(OC)c1.[I-]` (stereo not drawn) [compound 406], for which the “Chemotaxis Assay 0.1 µg/ml (inhibition %)” value amounted to 43%.

With `O=C(O)CCCN(CCCNC(=O)Nc1ccc(Br)cc1)CCc1ccccc1` [Compound 72], the “Chemotaxis Assay 10 µM (inhibition %)” value (CCR3/U937 cells (Table 3a)) was found to be 68%.

As to `O=C(O)CCCN(CCCNC(=O)Nc1ccc(Br)cc1)C(Cc1ccccc1)c1ccccc1` (stereo not drawn) [Compound 75], where the note is “CCR3/U937 cells (Table 3a)”, the “Chemotaxis Assay 10 µM (inhibition %)” value is given as 68%.

`O=C(O)CCCN(CCCNC(=O)Nc1ccc(OC(F)(F)F)cc1)C1CCCc2ccccc21` (stereo not drawn) [Compound 266]: where the note is “CCR3/U937 cells (Table 3a)”, the “Chemotaxis Assay 10 µM (inhibition %)” value was found to be 100%.

Regarding `CC[N+](CCCNC(=O)Nc1ccc(C(F)(F)F)cc1)(CCOCCOC)CCc1ccc(Cl)cc1.[I-]` (stereo not drawn) [compound 386], the “Chemotaxis Assay 0.1 µg/ml (inhibition %)” value is given as 43%.

Regarding `O=C(O)CCCN(CCCNC(=O)Nc1ccc(C(=O)O)cc1)C1CCCc2ccccc21` (stereo not drawn) [Compound 235], the “Chemotaxis Assay 10 µM (inhibition %)” value (CCR3/U937 cells (Table 3a)) turned out to be 91%.

Consider `CC[N+](CCF)(CCCNC(=O)Nc1ccccc1)CCc1ccc(Cl)cc1Cl.[I-]` (stereo not drawn) [compound 433], for which the “Chemotaxis Assay 0.1 µg/ml (inhibition %)” value turned out to be 76%.

Regarding `O=C(O)CCCN(CCCNC(=O)Nc1ccc(Br)cc1)C1CCc2ccccc21` (stereo not drawn) [Compound 177], where the note is “CCR3/U937 cells (Table 3a)”, the “Chemotaxis Assay 10 µM (inhibition %)” value amounted to 89%.

`COC(=O)CCCN(CCCNC(=O)Nc1ccc(C(=O)O)cc1)C1CCCc2ccccc21` (stereo not drawn) [Compound 225, Methyl 4-[[3-[4-(carboxy)phenylureido]propyl](1,2,3,4-tetrahydro-1-naphthyl)amino]butylate]: the “Chemotaxis Assay 10 µM (inhibition %)” value (CCR3/U937 cells (Table 3a)) stood at 100%.

Consider `COC(=O)CCCN(CCCNC(=O)Nc1cccc(Cl)c1)C1CCCc2ccccc21` (stereo not drawn) [Compound 51], for which the “Chemotaxis Assay 10 µM (inhibition %)” value (CCR3/U937 cells (Table 3a)) was 100%.

`CC[N+](CCCNC(=O)Nc1ccccc1)(CCc1ccc(Cl)cc1)Cc1cccc(OC)c1.[I-]` (stereo not drawn) [compound 331]: the “Chemotaxis Assay 10 µM (inhibition %)” value (CCR3/U937 cells (Table 3c)) is listed as 100%.

On to `CCOC(=O)C1CC1CN(CCCNC(=O)Nc1ccc(Br)cc1)C1CCCc2ccccc21` (stereo not drawn) [Compound 224], for which the “Chemotaxis Assay 10 µM (inhibition %)” value (CCR3/U937 cells (Table 3a)) is listed as 75%.

Regarding `CC[N+](CCCNC(=O)Nc1ccccc1)(CCc1ccc(Cl)cc1)Cc1cc2c(cc1Cl)OCO2.[I-]` (stereo not drawn) [compound 348], the “Chemotaxis Assay 10 µM (inhibition %)” value (CCR3/U937 cells (Table 3c)) was 100%.

Take `CC[N+](CCCNC(=O)Nc1ccc(C(F)(F)F)cc1)(CCOCCOC)CCc1cccc(Cl)c1.[I-]` (stereo not drawn) [compound 387]: the “Chemotaxis Assay 0.1 µg/ml (inhibition %)” value stood at 94%.

Turning to `CC[N+](CCCNC(=O)Nc1ccccc1)(CCc1ccc(Cl)cc1)CC(N)=O.[I-]` (stereo not drawn) [Compound 300], the “Chemotaxis Assay 10 µM (inhibition %)” value (CCR3/U937 cells (Table 3c)) was 100%.

Turning to `CC[N+](CCF)(CCCNC(=O)Nc1ccc(OC)cc1)CCc1cccc(Cl)c1.[I-]` (stereo not drawn) [compound 451], the “Chemotaxis Assay 0.1 µg/ml (inhibition %)” value is reported as 92%.

`CCC(CC)C[N+](CC)(CCCNC(=O)Nc1ccc(OC)cc1)CCc1cccc(Cl)c1.[I-]` (stereo not drawn) [compound 448]: the “Chemotaxis Assay 0.1 µg/ml (inhibition %)” value is on record as 82%.

On to `CCC(CC)C[N+](CC)(CCCNC(=O)Nc1ccc(C#N)cc1)CCc1cccc(Cl)c1.[I-]` (stereo not drawn) [compound 402], for which the “Chemotaxis Assay 0.1 µg/ml (inhibition %)” value is 71%.

As for `CCN(CCCNC(=O)Nc1ccccc1)CCc1ccccc1` [Compound 11], the “Chemotaxis Assay 10 µM (inhibition %)” value (CCR3/U937 cells (Table 3a)) is reported as 86%.

For `COC(=O)CCCN(CCCNC(=O)Nc1ccc(Br)cc1)C1CCCc2ccccc21` (stereo not drawn) [Compound 29, methyl 4-[[3-(4-bromophenylureido)propyl](1,2,3,4-tetrahydro-1-naphthyl)amino]butylate], the “Chemotaxis Assay 10 µM (inhibition %)” value (CCR3/U937 cells (Table 3a)) amounted to 100%.

As for `COC(=O)CCCN(CCCNC(=O)Nc1ccc(Br)cc1)[C@@H]1CCCc2ccccc21` [Compound 180, Methyl 4-[[3-(4-bromophenylureido)propyl][(1R)-1,2,3,4-tetrahydro-1-naphthyl]amino]burylate], the “Chemotaxis Assay 10 µM (inhibition %)” value (CCR3/U937 cells (Table 3a)) is listed as 100%.

Take `CC(=O)OCCCN(CCCNC(=O)Nc1ccc(Br)cc1)C1CCCc2ccccc21` (stereo not drawn) [Compound 215]: where the note is “CCR3/U937 cells (Table 3a)”, the “Chemotaxis Assay 10 µM (inhibition %)” value came out at 89%.

For the molecule `CC[N+](CCCNC(=O)Nc1ccccc1)(CCc1ccc(Cl)cc1)Cc1ccc(F)cc1F.[I-]` (stereo not drawn) [compound 339], under “CCR3/U937 cells (Table 3c)”, the “Chemotaxis Assay 10 µM (inhibition %)” value came out at 100%.

In the case of `CC(c1ccc([N+](=O)[O-])cc1)N(CCCNC(=O)Nc1ccc(Br)cc1)CCCC(=O)O` (stereo not drawn) [Compound 259], under “CCR3/U937 cells (Table 3a)”, the “Chemotaxis Assay 10 µM (inhibition %)” value is given as 100%.

Values taken from patent publication EP1200395B1, “UREA DERIVATIVES AS INHIBITORS OF CCR-3 RECEPTOR” (KIRIN BEER KABUSHIKI KAISHA, priority 1999, dated 2001).
